Results on one molecule are retold here after US20250345318A1, “COMPOUND AND USE THEREOF IN PREVENTING OR TREATING RADIATION DAMAGE” (SIMCERE PHARMACEUTICAL CO., LTD., priority 2022, published 2025).

Assay [1] concerns SPCA-1 cells. Description: Intracellular ROS (DCFH-DA), SPCA-1 (Example 22). The format is cell-based, human. The text has this:
The large amount of reactive oxygen species (ROS) induced by X-ray and the sustained oxidative stress reaction may cause DNA damage. Superoxide dismutase (SOD) and catalase (CAT) exert antioxidant effects, and the lipid oxidation product malondialdehyde (MDA) and ROS can reflect the oxidative stress level in vivo. The intracellular ROS level was detected using the fluorescent probe DCFH-DA. […] The supernatant of BEAS-2B cells was extracted and subjected to an MDA assay and an activity assay for CAT and SOD.

In assay [2] the test system is C57BL/6 male mice. Description: Survival of mice receiving total body X-ray irradiation (Example 1). It is filed as in vivo. The method, then: C57BL/6 male mice (24.8±1.6 g in body weight) aged 10 weeks were divided into two groups of 11 mice each. After acclimating to the environment, JAC4 (100 mg/kg) or an equal volume of vehicle (polyethylene glycol:ethanol:physiological saline=47.5:7.5:50, v/v/v) was orally administered to the mice once daily for 7 consecutive days. After that, the mice were subjected to total body X-ray irradiation (6.5 Gy) and JAC4 or vehicle treatment was continued. After 3 days, the administration of JAC4 or vehicle was discontinued. The status was observed daily and the body weights of the mice were recorded.

The test system of assay [3] is NF-κB. Description: NF-κB nuclear translocation by Western blot, BEAS-2B (Example 22). The following applies: JAC4 in combination with X-ray. It is filed as cell-based, human. The source says:
The production of ROS may lead to the activation of NF-κB, promote the translocation of NF-κB to the cell nucleus, and mediate various inflammatory responses. The nuclear and cytoplasmic proteins in BEAS-2B cells in all groups were separated.
On the technique in general: A western blot detects proteins with antibodies after separation by electrophoresis.

Assay [4] relates to C57BL/6 male mice. In words: Survival of mice after abdominal X-ray irradiation (Example 2). It is filed as in vivo. The method, then: C57BL/6 male mice (26.7±1.0 g in body weight) aged 10 weeks were divided into two groups of 10 mice each. After acclimating to the environment, JAC4 (100 mg/kg) or an equal volume of vehicle (polyethylene glycol:ethanol:physiological saline=47.5:7.5:50, v/v/v) was orally administered to the mice once daily for 7 consecutive days. After that, the mice were subjected to abdominal X-ray irradiation (12 Gy) and JAC4 or vehicle treatment was continued. After 3 days, the administration of JAC4 or vehicle was discontinued. The status was observed daily and the body weights of the mice were recorded.

The test system of assay [5] is JWA. Description: JWA expression in small intestine by Western blot (Example 4). The note with it: small intestine tissue; JAC4 100 mg/kg oral, 7 days before and 4 days after TBI 6 Gy. It is filed as in vivo, mice. The method, then:
C57BL/6 male mice (24.8±1.6 g in body weight) aged 10 weeks were divided into 2 groups. After acclimating to the environment, JAC4 (100 mg/kg) or an equal volume of vehicle (polyethylene glycol:ethanol:physiological saline=47.5:7.5:50, v/v/v) was orally administered to the mice once daily for 7 consecutive days. After that, the mice were subjected to total body X-ray irradiation (6 Gy) and JAC4 or vehicle treatment was continued for 4 days, after which small intestine tissues were collected. The expression levels of JWA in the small intestine were detected by Western blot, with β-actin as the reference. Adobe photoshop CC was used to measure the grayscale value of JWA/β-actin in panel A for statistical analysis (** p<0.01).
The Western blot procedures are as follows:
1. Protein sample preparation: Proper volumes of protein sample solutions were mixed with physiological saline to give […] solutions at a volume of 16 μL, and 4 μL of 5×SDS sample buffer was added. The mixture was uniformly mixed, centrifuged at 1000×g for 10 s, and boiled at 100° C. for 5 min. The samples were cooled at room temperature and then preserved in a −20° C. freezer.
(1) Lower separating gel: The glass plates and gel cassette were assembled while ensuring that the bottom of the glass plates was sealed to prevent leakage of the gel. […]

With `c1ccc(CSc2nnc(C3COc4ccccc4O3)o2)nc1` (centres unmarked) [JAC4], the ROS level result in assay [1] is given as “no significant effect”. In addition, the “mean survival after radiation” value in assay [2] (JAC4 100 mg/kg oral once daily, 7 days before to 3 days after total body X-ray 6.5 Gy, observation day 30) came to 17.9 ± 8.4 days; in assay [4] (JAC4 100 mg/kg oral once daily, 7 days before to 3 days after abdominal X-ray 12 Gy, observation day 30), 16.8 ± 9.0 days. The “number of mice died” value in assay [2] (JAC4 100 mg/kg oral, TBI 6.5 Gy, 11 mice per group) was found to be 6 mice; in assay [4] (JAC4 100 mg/kg oral, ABI 12 Gy, 10 mice per group, day 15), 4 mice. The “number of mice survived” value in assay [2] (JAC4 100 mg/kg oral, TBI 6.5 Gy, 11 mice per group, vehicle group all dead on day 12) came to 5 mice; in assay [4] (JAC4 100 mg/kg oral, ABI 12 Gy, 10 mice per group, day 15, when all vehicle mice had died) it was 6 mice. Besides, the “weight loss after radiation” value in assay [2] (JAC4 100 mg/kg oral, TBI 6.5 Gy, vs vehicle) is on record as “slower”; in assay [4] (JAC4 100 mg/kg oral, ABI 12 Gy, vs vehicle) it was “slower”. Also, the “X-ray-induced increase of NF-κB nuclear expression” value in assay [3] was “inhibited”. In addition, the “mean grayscale value of JWA expression (JWA/β-actin)” value in assay [5] is listed as 0.72±0.13.
